Experimental data as given in patent publication US11241436B2, “Autophagy inducers for treatment of CNS conditions” (Northwestern University, priority 2017, dated 2022).

Columns and labels:
amyloid plaques = test: Amyloid plaques stained by thioflavin S or Aβ42 antibody in brain of 5XFAD mice; assay type: in vivo, mouse
Experimental: Scale bar: 500 μm. Results represent mean±s.e.m. N=6-8. *, P<0.05; **, P<0.01, t test.
Immunofluorescence microscopy. Paraformaldehyde-fixed brain tissues were sectioned at 30 μm thickness. Free-floating sagittal sections were immunostained with 1% thioflavin S (Sigma-Aldrich, 230456) for 20 minutes. Additional sections were immunostained with Aβ (Invitrogen, 700254, 1:500) and Alexa Fluro 594 goat anti rabbit (ThermoFisher Scientific, Al 1012). Sections were mounted on slides with mounting medium containing DAPI (Vectashield) and then analyzed by fluorescence microscopy under the 10× objective.

APP = test: Expression of the precursor APP in brain of 5XFAD mice; assay type: in vivo, mouse
Experimental: (§1) Western blot analyses. Cell or mouse muscle and brain extracts were prepared in lysis buffer containing 50 mM Tris (pH 7.4), 150 mM NaCl, 1 mM EDTA, 1% Triton X-100, halt proteinase inhibitor cocktail (ThermoFisher Scientific) and halt phosphatase inhibitor cocktail (ThermoFisher Scientific), and subjected to western blot analysis with anti-LC3 (Novus Biologicals, NB100-2220), anti-SQSTM 1 (Abnova, H00008878-M01), anti-Af342 (Invitrogen; 700254), anti-APP (Biolegend; 803001), HRP-conjugated GFP antibody (Santa Cruz Biotechnology, sc9996), anti-HA (Cell Signaling Technology, C29F4), anti-ATG7 (Sigma Aldrich; A2856), anti-LDLR (Abeam, ab52818), anti-LRP 1 (Abeam, ab92544), and anti-ACTB/f3-actin-HRP (Santa Cruz Biotechnology, sc47778 HRP) antibodies. The band intensity was analyzed using the ImageJ software.

HTT aggregates = test: Fluorescence imaging of HTT inclusions in HeLa cells; assay type: cell-based
From the text: Blue, DAPI. Results represent mean±s.e.m. Scale bar: 20 μm. Statistics compare each value to the one under the “-” condition. **, P<0.01; ***, P<0.001; NS, not significant, t test.
ML246 promotes the removal of intracellular aggregates formed by polyglutamine (polyQ)-expansion proteins. HeLa cell lines stably expressing tetracycline-repressible expanded polyQ-repeat protein HTT (huntingtin) was used as a model, HTT65Q and HTT103Q. In contrast to the HTT protein with the normal number of glutamine repeats (HTT25Q), HTT65Q and HTT103Q formed insoluble polyQ aggregates larger than 0.2-μm diameter, which can be detected by filter trap assay. […] Fluorescence imaging further confirmed that ML246 administration decreased the number of cells positive for HTT aggregates, which is also in an ATG7-dependent manner (FIG. S6B).
Accordingly, whether Rg2 affects the clearance of proteinaceous inclusions in vitro was next determined, using HeLa cell lines expressing tetracycline-repressible expanded polyglutamine (polyQ)-repeat protein HTT (huntingtin), HTT65Q and HTT103Q. Unlike the HTT protein with the normal number of glutamine repeats (HTT25Q), HTT65Q and HTT103Q formed insoluble polyQ aggregates larger than 0.2-μm diameter, which were detected by filter trap assays (FIG. 5A).

[1] = Brain penetration / pharmacokinetics study; conditions: for brain penetration: mouse, in vivo
[2] = test system: Hela cells stably expressing GFP-LC3; test: GFP-LC3 puncta in Hela cells stably expressing GFP-LC3, with or without bafilomycin A1; assay type: cell-based; conditions: for numbers of GFP-LC3 puncta (autophagosomes): Hela cells, normal medium, compared with starvation; for accumulation of GFP-LC3 puncta, LC3-II and p62 (autophagic flux): co-treated with lysosomal inhibitor bafilomycin A1, compared to normal conditions
From the text: Results represent mean±s.e.m. Statistics are comparing the indicated value with or without BafA 1 to the one under the normal condition.
Accordingly, an important translational question is how to reduce Beclin 2 activity to maintain CB sensitivity and prevent drug tolerance induced by repeated cannabinoid exposure. To avoid the technical difficulty and risk of directly deleting Beclin 2 in vivo (such as injecting shRNAs or CRISPR/Cas9 constructs), which may disrupt Beclin 2-regulated autophagy, a novel and more convenient strategy to achieve the same goal via modulating the Beclin 2 interactome was developed and tested, which will not affect the essential autophagy function of Beclin 2 (FIG. 6A). Beclin 2 is present in two distinct protein complex pools, the Beclin 2-class Ill phosphatidylinositol 3-kinase complex for autophagy, and the Beclin 2-GASP1-GPCR complex in which Beclin 2-GASP1 binding is required for GPCR degradation. Thus, it was hypothesized that Beclin 2 is a limiting factor that regulates the balance between the two lysosomal degradation pathways, and that competitive recruitment of Beclin 2 to the autophagy machinery by activating autophagy prevents it from functioning in CB1R downregulation and thus restores CB1R functionality and reverses drug tolerance. To test this hypothesis, whether autophagy activation by brain-penetrable inducers inhibits the Beclin 2-GASP1 interaction was first examined. […] To determine autophagy activation by the two compounds, several markers of autophagy induction were analyzed, including formation of autophagosomes in cells and transgenic mice expressing GFP-tagged LC3 (an autophagosome marker), degradation of p62 (an autophagy substrate protein), and conversion of LC3 from the non-lipidated form (LC3-1) to the autophagosome-associated lipidated form (LC3-11). […]
To determine autophagy activation by the 2 compounds ML246 and Rg2, several markers of autophagy induction were analyzed, including formation of autophagosomes in cells and transgenic mice expressing GFP-tagged MAP1LC3/LC3 (microtubule-associated protein 1 light chain 3; an autophagosome marker), degradation of SQSTM1/p62 (sequestosome 1; an autophagy receptor and substrate protein), and conversion of LC3 from the non-lipidated form (LC3-I) to the phagophore- and autophagosome-associated lipidated form (LC3-II). […]

Hela cells = test: Western blot detection of LC3 and p62 in Hela cells; assay type: cell-based
Experimental: as §1

| SMILES | amyloid plaques (amyloid plaques; 5XFAD mice, 5 weeks of ML246) | expression of the precursor APP (APP; ML246 for 5 weeks) | number of cells positive for HTT aggregates (HTT aggregates; ML246) | brain penetration [1] | numbers of GFP-LC3 puncta (autophagosomes) [2] | accumulation of GFP-LC3 puncta, LC3-II and p62 (autophagic flux) [2] | levels of p62 (SQSTM1) (Hela cells) | number of amyloid plaques (amyloid plaques; Rg2-treated 5XFAD mice, thioflavin or Aβ42 antibody) | expression of the precursor APP (APP; Rg2 for 16 weeks) | number of cells positive for HTT aggregates (HTT aggregates; Rg2) | brain level ([1]; 24 h postinjection) | time of peak brain level after injection ([1]; brain) [min] |
| --- | --- | --- | --- | --- | --- | --- | --- | --- | --- | --- | --- | --- |
| N=c1c2c(-c3ccccc3)c(-c3ccccc3)n(Cc3ccccc3)c2ncn1[C@H]1CC[C@H](O)CC1 [ML246] | trend of plaque reduction | not affected | decreased | can pass the blood-brain barrier | markedly increased | more accumulation | decreased |  |  |  |  |  |
| CC(C)=CCC[C@](C)(O)[C@H]1CC[C@]2(C)[C@@H]1[C@H](O)C[C@@H]1[C@@]3(C)CC[C@H](O)C(C)(C)[C@@H]3[C@@H](O[C@@H]3O[C@H](CO)[C@@H](O)[C@H](O)[C@H]3O[C@@H]3O[C@@H](C)[C@H](O)[C@@H](O)[C@H]3O)C[C@]12C [Rg2, ginsenoside Rg2] |  |  |  | able to enter the brain | markedly increased | more accumulation | decreased | significantly fewer number | remained unaffected | reduced | still detectable | 15 |
